Here are results for two molecules from PMC12257394, “Design, Synthesis, and Biological Evaluation of Ferrocenyl–Cyclo-(Gly‑L‑Pro) Hybrids Sensitizing Multidrug-Resistant Cancer Cells to Anticancer Agents” (ACS Medicinal Chemistry Letters, 2025).

Holding throughout (type): cell-based, human
One series has as its system SW620 cells. The series is described as follows: Neutral red uptake viability assay, SW620. The conditions noted are these: for survival rate: 72 h, n = 3, ± SD; for IC50: SW620, 72 h, n = 3, read-out: Cytotoxic activity IC50 (95% CI). As for the experimental part: (§1) To evaluate this aspect, we investigated the viability of SW620 colon cancer cells and their multidrug-resistant variants (overexpressing ABCB1, ABCC1, and ABCG2) exposed to 1 and 10 μM 4a–e using a neutral red uptake assay (Table ). In general, compounds 4a–e exerted little or no cytotoxic effect on either SW620 or multidrug-resistant sublines even at 10 μM, with the remarkable exception of SW620C (cisplatin-selected variant of SW620) cells, which turned out to be relatively susceptible toward ferrocenyl 4a–c. […] This trend may reflect steric or electronic contributions to cellular uptake or interaction with intracellular targets. […] However, since E/Z isomeric data are currently available only for compound 4c, this hypothesis requires validation. To quantify this effect, IC50 values were determined (Table ). […]
(§2) The normal lung fibroblast MRC-5 and colorectal adenocarcinoma SW620 cell lines used in this experiment were purchased from American Type Culture Collection (USA) via LGC […]
(§3) Standards. Multidrug-resistant variants of SW620 cells were developed in our laboratory as described previously.10, 11 All cells were cultured under standard conditions (37°C, 5% CO2, 100% humidity) in high-glucose DMEM supplemented with GlutaMaxTM, HEPES (ThermoFisher Scientific, USA), and 10% fetal bovine serum (EURx, Poland). Cells were routinely tested for potential Mycoplasma contamination using the MycoProbe Mycoplasma Detection kit (R&D System, USA).
(§4) In total, 104 cells in 100 µL of complete medium were plated per well of a 96-well plate and left overnight to allow cells to adhere to the surface. Then, the cells were exposed to a desired concentration of tested compound(s). Stock solutions were prepared in DMSO and used immediately. The final DMSO concentration was constant and nontoxic (0.1% v/v). After 70-h incubation, neutral red was added to the final concentration of 1 mM. After another 2 h, the medium was aspirated, and cells were washed twice with PBS. Dye was released using 100 µL of a solubilizer (1% acetic acid in 50% ethanol) on an orbital shaker (10 min). Absorbance was read at 540 nm using EnVision Multilabel Plate Reader (Perkin Elmer, USA). Results were expressed as % of control. The IC50 parameters were calculated using GraphPad Prism version 10 (GraphPad Software, Boston, Massachusetts USA). […]
(§5) All experiments were performed in triplicate (n = 3).

Series [1] deals with SW620C cells (cisplatin-resistant). The series is described as follows: Neutral red uptake viability assay, SW620C. The conditions noted are these: for survival rate: n = 3, ± SD; for IC50: read-out: Cytotoxic activity IC50 (95% CI). The protocol: as §2
described previously.10, 11 All cells were cultured under standard conditions (37°C, 5% CO2, 100% humidity) in high-glucose DMEM supplemented with GlutaMaxTM, HEPES (ThermoFisher Scientific, USA), and 10% fetal bovine serum (EURx, Poland). Cells were routinely tested for potential Mycoplasma contamination using the MycoProbe Mycoplasma Detection kit (R&D System, USA).
as §4
IC₅₀ values were determined in […]
as §5

The test system of series [2] is SW620E cells (etoposide-resistant). The series is described as follows: Neutral red uptake viability assay, SW620E. The conditions noted are these: 72 h; for survival rate: n = 3, ± SD; for IC50: n = 3, read-out: Cytotoxic activity IC50 (95% CI). As for the experimental part: as §1, §2, §3, §4, §5
Series [3] relates to ABCB1-overexpressing SW620D cells. The series is described as follows: MDR reversal assay (ERP), SW620D. The conditions noted are these: for ERP value, doxorubicin + compound: SW620D (xlsx); for ERP = IC50(drug)MDR/IC50(drug+4)MDR: doxorubicin, SW620D.
Text: (§6) We investigated the potency of 4a–e to inhibit ABC transporters (ABCB1, ABCC1, and ABCG2) by determining their enhancement of reversal potency (ERP) values. ERP represents fold changes in the IC50 values of anticancer drugs in multidrug-resistant cancer sublines (ABCB1-overexpressing SW620D, SW620E, and SW620V; ABCC1-overexpressing SW620M; ABCG2-overexpressing SW620C and SW620Mito) exposed to a combination of the investigated compounds and anticancer agents at equimolar concentrations, compared with values obtained with drugs alone (Tables S2 and S3 and Figure ).
as §3
(§7) In total, 104 cells in 100 µL of complete medium were plated per well of a 96-well plate and left overnight to allow cells to adhere to the surface. Then, the cells were exposed to a desired concentration of tested compound(s). Stock solutions were prepared in DMSO and used immediately. The final DMSO concentration was constant and nontoxic (0.1% v/v). After 70-h incubation, neutral red was added to the final concentration of 1 mM. After another 2 h, the medium was aspirated, and cells were washed twice with PBS. Dye was released using 100 µL of a solubilizer (1% acetic acid in 50% ethanol) on an orbital shaker (10 min). Absorbance was read at 540 nm using EnVision Multilabel Plate Reader (Perkin Elmer, USA). Results were expressed as % of control. The IC50 parameters were calculated using GraphPad Prism version 10 (GraphPad Software, Boston, Massachusetts USA).
(§8) The enhancement of reversal potency (ERP) value determination
(§9) For MDR reversal assays, cytotoxic agents were co-administered with compounds 4a–4e at equimolar concentrations in a range of 10 nM to 100 µM. IC₅₀ values were determined in ABCB1-overexpressing SW620 cell line variants. The enhancement of reversal potency (ERP) was calculated using the following formula: ERP = IC₅₀(drug)MDR / IC₅₀(drug + compound)MDR. All experiments were performed in triplicate (n = 3).

Series [4] deals with ABCB1-overexpressing SW620V cells. The series is described as follows: MDR reversal assay (ERP), SW620V. The conditions noted are these: for ERP value, vincristine + compound: SW620V (xlsx); for ERP = IC50(drug)MDR/IC50(drug+4)MDR: vincristine, SW620V.
Text: as §6, §3, §7, §8, §9

In series [5] the test system is ABCG2-overexpressing SW620C cells. The series is described as follows: MDR reversal assay (ERP), SW620C. The conditions noted are these: for ERP value, cisplatin + compound: SW620C (xlsx).
Text: as §6, §3, §7, §8, §9

Series [6] deals with ABCG2-overexpressing SW620Mito cells. The series is described as follows: MDR reversal assay (ERP), SW620Mito. The conditions noted are these: for ERP value, mitoxantrone + compound: SW620Mito (xlsx); for ERP = IC50(drug)MDR/IC50(drug+4)MDR: mitoxantrone, SW620Mito.
Text: as §6, §3, §7, §8, §9

Another series relates to SW620D cells. The series is described as follows: Synergy determination (Bliss model, SynergyFinder), SW620D. The conditions noted are these: drug doxorubicin + additive; for synergy score: Bliss model. The text has this:
(§10) In an ideal setting, the effect of cell exposure to a combination of a chemotherapeutic and an MDR inhibitor should be synergistic. […] The highest synergy scores identified an optimal concentration range where the combination exerted its maximal effect. […] In cisplatin-resistant SW620C cells, the low or lack of synergy observed for most compounds may be due to the additive effects of cisplatin and 4 rather than a true synergistic interaction. […]
(§11) To evaluate the potential interactions between putative ABC inhibitors and anticancer drugs, we utilized the Bliss independence model, as implemented in the SynergyFinder web application.13, 14 Synergy scores and the most synergistic area scores were calculated based on the normalized dose–response matrices. A synergy score below −10 indicates likely […]
(§12) above 10 is indicative of likely synergistic interactions.
(§13) All experiments were performed at least three times, and the data were statistically analyzed

The test system of another series is SW620Mito cells. The series is described as follows: Synergy determination (Bliss model, SynergyFinder), SW620Mito. The conditions noted are these: drug mitoxantrone + additive, SW602Mito; for synergy score: Bliss model.
Text: as §10, §11, §12, §13

As for `O=C1N/C(=C\[c-]2cccc2)C(=O)N2CCC[C@@H]12.[Fe+2].c1cc[cH-]c1` [(S,Z)-4a], the survival rate came to 95 ± 2.2% in the series with SW620 cells (SW620, 1 μM); 88 ± 6.0% with SW620 cells (SW620, 10 μM); 78 ± 1.8% in series [1] (SW620C, 1 μM, 72 h); 54 ± 3.1% in [1] (SW620C, 10 μM, 72 h); 93 ± 0.8% in series [2] (1 μM); 94 ± 3.0% in series [2] (10 μM). For the same molecule, the IC50 in the series on SW620 cells is greater than 100 µM; in [1] (SW620C, 72 h, n = 3) it was 15.1 µM; in series [2], greater than 100 µM. Moreover, in series [1] (SW620C, 72 h, n = 3), the “Cytotoxic activity IC50 (95% CI)” value was “low-micromolar”. Besides, the “ERP value, doxorubicin + compound” value in series [3] is recorded as 2.90. Moreover, the “ERP = IC50(drug)MDR/IC50(drug+4)MDR” value is 2.90 in [3]; 6.00 in series [4]; 4.86 in [5] (cisplatin, SW620C); 4.61 in series [6]. The “ERP value, vincristine + compound” value in [4] was 6.00. Further, the “ERP value, cisplatin + compound” value in [5] turned out to be 4.86. Further, in series [6], the “ERP value, mitoxantrone + compound” value is listed as 4.61. The entries for the “most synergistic area score” value with SW620D cells and with SW620Mito cells were 20.51 and 16.82, respectively. Further, the results for the synergy score with SW620D cells and in the series on SW620Mito cells were 6.30 and 7.86, respectively.

As for `O=C1N/C(=C/c2cccc(-[c-]3cccc3)c2)C(=O)N2CCC[C@@H]12.[Fe+2].c1cc[cH-]c1` [(S,E)-4c], the survival rate was determined as 95 ± 3.4% in the series on SW620 cells (SW620, 1 μM); 95 ± 6.0% with SW620 cells (SW620, 10 μM); 84 ± 0.7% in series [1] (SW620C, 1 μM, 72 h); 87 ± 1.1% in series [1] (SW620C, 10 μM, 72 h); 95 ± 2.1% in series [2] (1 μM); 91 ± 0.8% in series [2] (10 μM). Also, the IC50 is greater than 100 µM in the series with SW620 cells; 62.4 µM in series [1] (SW620C, 72 h, n = 3); greater than 100 µM in [2]. Also, in series [1] (SW620C cells), the “fold higher IC50 value than (S,Z)-4c” value was found to be 13 fold. Further, in series [3], the “ERP value, doxorubicin + compound” value was 0.77. Also, the “ERP = IC50(drug)MDR/IC50(drug+4)MDR” value is recorded as 0.77 in [3], 0.81 in series [4] and 0.87 in series [6]. In addition, the “ERP value, vincristine + compound” value in [4] came to 0.81. Besides, in series [5], the “ERP value, cisplatin + compound” value was 3.45. The “ERP value, mitoxantrone + compound” value in series [6] came to 0.87. Further, the “most synergistic area score” value is 1.68 in the series with SW620D cells and 0.67 with SW620Mito cells. Besides, the synergy score entry is given as “–3.01” in the series with SW620D cells and “–4.74” with SW620Mito cells.
